Target: Immunoglobulin A1 protease autotransporter (Haemophilus influenzae (strain ATCC 51907 / DSM 11121 / KW20 / Rd), UniProt P44969)
Assay: Inhibition of Haemophilus influenzae Rd IGA1 protease expressed in Escherichia coli BL21(DE3) preincubated for 1 hr followed by substrate addition and measured after 2 hrs by sandwich ELISA

Sequence of Immunoglobulin A1 protease autotransporter (P44969 26-1014 limits assumed): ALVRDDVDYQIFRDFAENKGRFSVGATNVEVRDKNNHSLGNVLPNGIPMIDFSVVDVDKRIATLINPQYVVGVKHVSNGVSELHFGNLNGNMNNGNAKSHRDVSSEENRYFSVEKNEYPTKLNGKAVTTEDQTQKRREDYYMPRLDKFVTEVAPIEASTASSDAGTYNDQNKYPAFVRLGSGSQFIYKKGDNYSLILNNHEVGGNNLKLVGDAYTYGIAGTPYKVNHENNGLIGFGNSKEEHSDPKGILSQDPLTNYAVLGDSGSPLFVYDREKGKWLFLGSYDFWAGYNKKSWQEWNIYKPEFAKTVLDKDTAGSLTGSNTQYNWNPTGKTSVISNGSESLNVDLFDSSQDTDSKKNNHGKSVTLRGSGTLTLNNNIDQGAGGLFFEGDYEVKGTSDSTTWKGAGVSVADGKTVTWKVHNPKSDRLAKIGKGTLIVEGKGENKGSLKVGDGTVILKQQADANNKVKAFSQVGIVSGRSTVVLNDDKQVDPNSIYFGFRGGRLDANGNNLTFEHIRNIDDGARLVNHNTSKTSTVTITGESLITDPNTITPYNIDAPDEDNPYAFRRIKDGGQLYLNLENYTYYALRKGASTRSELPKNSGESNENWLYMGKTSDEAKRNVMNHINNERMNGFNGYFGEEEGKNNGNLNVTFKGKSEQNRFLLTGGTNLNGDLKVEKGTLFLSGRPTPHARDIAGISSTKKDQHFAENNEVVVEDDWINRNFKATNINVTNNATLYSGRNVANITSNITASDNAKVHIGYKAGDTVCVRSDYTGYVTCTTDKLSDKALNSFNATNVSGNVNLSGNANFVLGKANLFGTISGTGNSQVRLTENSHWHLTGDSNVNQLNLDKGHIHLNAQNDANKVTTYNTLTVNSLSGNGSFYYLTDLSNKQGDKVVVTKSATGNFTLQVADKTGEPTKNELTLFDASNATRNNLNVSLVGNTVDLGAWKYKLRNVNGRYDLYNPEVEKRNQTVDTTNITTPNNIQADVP

SMILES | IC50
O=C(Oc1nsnc1N1CCOCC1)c1ccccc1 | 5.9 µM
O=C(Oc1nsnc1N1CCCCC1)C1CCOCC1 | 3.7 µM

Source: ChEMBL document CHEMBL4725243, “High-Throughput Screening for the Discovery of Enzyme Inhibitors” (J Med Chem, 2020)
